# Experimental data reported in patent publication US12496298B2, “Natural killer cells” (Imperial College Innovations Limited, priority 2017, dated 2025).
# Tested on: mouse NK cell (NK1.1+CD3−) production from HPCs
# Experiment: In vitro development of NK cells from mouse HPCs (NK cell development assay, flow cytometry at Day 9)
# Type: cell-based
# From the text: FIG. 2: Timeline of NK cell development assay. HPCs were isolated and cultured plus FIt3L, IL-7 and SCF cytokines. At Day 2, they were then transferred onto OP9 stromal cells plus or minus drug in culture medium plus the IL-15 cytokine. The media of the cultures were changed at Day 5 and the cells were harvested and analysed at Day 9.
# Lineage negative cells are enriched for Hematopoietic Progenitor Cells (HPCs). […] Cells were harvested on Day 9 and analysed using flow cytometry to determine the number of NK1.1^+CD3^− cells (FIG. 2). NK1.1^+ and CD3^− are two cell surface markers that can define mouse NK cells. OP9 stromal cells were readily excluded from the analysis, as the OP9 stromal cells used were GFP positive (FIG. 3B). Flow cytometry data were analysed as the fold increase, relative to the ‘No drug’ or untreated control in each experiment. This is because the absolute percentage of NK cell production varies between experiments.
# Lineage negative HSCs were purified from mouse bone marrow by crushing the leg bones in Phosphate-buffered Saline (PBS) with 2% fetal calf serum (FCS) (STEMCELL Technologies), topped up to 40 ml with magnetic-activated cell sorting (MACS) buffer (PBS, 2 mM EDTA, 0.5% BSA, sterile and filtered) and centrifuged at 800 g for 2 minutes. The cells were resuspended in PE-conjugated cocktail, (20 μl of anti-B220 (RA3-6B2), anti-mouse CD2 (RM2-5, anti-Ter119 (TER119) and anti-NK.1.1 (PK136) and 5 μl of anti-CD11b (M1/70) and anti-GR-1 (RB6-8C5) antibodies (all from Bioscience)) incubated for 5 minutes at 4° C., centrifuged and resuspended in anti-PE microbeads for 15 minutes at 4° C. Cells were washed in MACS buffer and passed through MACS columns. This allowed negative selection of HPCs. Following lineage depletion, 50 μl of the cells was analysed using flow cytometry to check for purity.
# The HPCs were plated and cultured in 24-well plates at a concentration of 5×10^5 HPCs/well in 1 ml of complete cytokine medium (Dulbecco's modified eagle medium (DMEM) (Sigma Aldrich), 10% FCS, 50 μM β-Mercaptoethanol, 10 ng/ml Flt3-ligand (FIt3L) (R&D Systems), 10 ng/ml IL-7 (R&D Systems), 100 ng/ml stem cell factor (SCF) (R&D Systems) and 1% P/S) for 2 days at 37° C., 5% CO2. The HPCs were then transferred onto OP9 cells at 4500 cells/well for 96-well plate experiments and 3×10^4 cells/well for 24-well plate experiments in mouse NK cells differentiation medium (Alpha-MEM (Sigma Aldrich) plus 20% FCS, 1% P/S and 30 ng/ml IL-15). Cells were left in culture at 37° C., 5% CO2 for 7 days with a change of mouse NK cells differentiation medium at day 3 or 4.
# Cells to be analysed by flow cytometry were passed through 40 μm cell strainers to remove clumps and washed with PBS buffer, centrifuged at 800 g for 2 minutes and resuspended in 100 μl fluorescent activated cell sorting (FACS) buffer (PBS plus 1% BSA) with appropriate fluorochrome conjugated antibodies at a dilution of 1 in 300. Cells were stained with the following antibodies, all of which were anti-mouse and are from eBioscience unless specified: 2B4 (clone m2B4(B6) 458.1; BioLegend), CD2 (RM2-5), CD3 (17A2), CD11b (M1/70), CD19 (1D3), CD27 (LG.7F9), CD122 (TM-b1), CD127 (A7R34), B220 (RA3-6B2), ckit (ACK2), Flt3 (A2F10), Gr1 (RB6-8C5), NK1.1 (PK136), Sca1 (D7), Ter119 (TER119), NKp46 (29A1.4) anti-human CD45 (HI30), anti-human CD2 (RPA-2.10) and anti-human CD56 (CMSSB). The lineage cocktail contained B220, CD2, CD11b, Gr1, NK1.1, and Ter119. Cells were stained in the dark at 4° C. for 30 minutes and then washed with 2 ml FACS buffer, centrifuged and resuspend in 300 μl FACS buffer plus Propidium Iodide (PI) also at a dilution of 1 in 300. Flow cytometry was performed using LSRFortessa™ cell analyser (Becton Dickinson Bioscience), sorted using FACSAria (Becton Dickinson) as indicated and full data analysis was done using FlowJo Software.
smiles,measurement,setting,value
NC(=O)c1ccc(-c2nc(-c3ccc4c(c3)OCCO4)c(-c3ccccn3)[nH]2)cc1 [D4476],NK cell production compared to 'No drug' control,"20 μM added Day 2, analysed Day 9, screen (FIG. 3)",significant increase
CC(C)(C)OC(=O)CN(Cc1ccc(Cl)cc1)Cc1ccc([N+](=O)[O-])s1 [GSK4112],NK cell production reduced,"GSK4112 tested at 2, 5, 10 and 20 μM (FIG. 6), concentration not given",~50%
same,effect on NK cell production,summary in Discussion,decreasing NK cell production
N#Cc1ccc(-c2csc(NN=C3CCCC3)n2)cc1 [Remodelin],NK cell production compared to 'No drug' control,"5 μM added Day 2, analysed Day 9, screen (FIG. 3)",significant increase
